Reference: patent publication US5977169A, “Substituted tetronic acids useful for treating HIV and other retroviruses” (priority 1997, dated 1999)
Counter-ions that a name gives are not always drawn.

Molecular target: T1, HIV-1 protease (Human immunodeficiency virus type 1 group M subtype B, UniProt P04585)
T1 construct: The protease (or proteinase) enzyme, consisting of only 99 amino acids
Experiment: In vitro HIV protease inhibitory assay (fluorescently labeled substrate, avidin-polystyrene particles)
Type: biochemical
Details: for inhibition at 3.3 µM: HIV-1 dose 3.3 μM; for inhibition at 10 µM: HIV-1 dose 10.0 μM; for inhibition at 30 µM: HIV-1 dose 30.0 μM
Experimental: The HIV protease screening assay is based on a fluorescently labeled substrate which can be resolved from nonlabeled cleavage product using avidin-polystyrene particles, 0.7-0.9 μm. The substrate is biotinylated at the amino terminal arginine and fluorescently labeled with fluorescein isothiocynate (FITC) at the carboxyl terminal lysine. This assay has been employed to detect novel, nonpeptidic inhibitors of HIV-1 protease. Substrate (20 μl of 0.2 μM), sample (10 μl of desired concentraion), and enzyme (10 μl of 0.1 μM) are added to a 96 well pandex plate. The assay is run in 0.1 M sodium acetate buffer at pH 5.5 in the presence of 1.0 M sodium chloride and 0.05% NP-40 and incubated in the dark for one hour at room temperature. Avidin coated polystyrene beads (40 μl of 0.1% (w/v)) are added and the incubation is continued in the dark for an additional half hour. The labeled cleavage product is separated from the unreacted substrate via filtration and is read on the IDEXX Screen Machine. (IDEXX Corporation--Portland, Me.) The data are analyzed by appropriate computer algorithms to ascertain percent inhibition values.
The Activity Table showing the results of the HIV Protease Inhibitory Assay appears below in TABLE 1. The table has three columns, the left column provides the code number of the compound for easy cross reference to structure tables and detailed procedures, the middle column provides the concentration of test compound and the column on the right provides the percent inhibition.

[1] = test compound concentration 3.3 μM
[2] = test compound concentration 10.0 μM
[3] = test compound concentration 30.0 μM

| SMILES | inhibition at 3.3 µM [%] | inhibition at 10 µM [%] | inhibition at 30 µM [%] | other results |
| --- | --- | --- | --- | --- |
| O=C1OC2(CCCCC2)C(O)=C1C(c1ccccc1)C1CC1 (stereo not drawn) [IX-3, 1-Oxaspiro[4.5]dec-3-en-2-one, 3-(cyclopropyl-phenylmethyl)-4-hydroxy-] | 102 | 114 | 103 |  |
| O=C1OC2(CCCCC2CCc2ccccc2)C(O)=C1C(c1ccccc1)C1CC1 (stereo not drawn) [IX-4, 1 -Oxaspiro[4.5]dec-3-en-2-one, 3-(cyclo-propylphenylmethyl)-5-hydroxy--6-(2-phenylethyl)-] |  | 78.1 | 86 | HIV-1 Protease % Inhibition [1]: 56.89% |
| O=C1OC2(CCCCC2CCc2ccccc2)C(O)=C1C(c1ccccc1)C1CC1 (stereo not drawn) [IX-5, 1-Oxaspiro[4.5]dec-3-en-2-one, 3-(cyclo-propylphenylmethyl)-4-hydroxy--6-(2-phenylethyl)-] |  |  |  | HIV-1 Protease % Inhibition [1]: 91.93%; HIV-1 Protease % Inhibition [2]: 95.68%; HIV-1 Protease % Inhibition [3]: 92.9% |
| O=C1OC2(CCCCC2Cc2ccccc2)C(O)=C1C(c1ccccc1)C1CC1 (stereo not drawn) [IX-6, 1-Oxaspiro[4.5]dec-3-en-2-one, 3-(cyclo-propylphenylmethyl)-4-hydroxy--6-(2-phenylmethyl)-] | 101 | 104 | 105 |  |
| O=C1OC2(CCCCC2Cc2ccccc2)C(O)=C1C(c1ccccc1)C1CC1 (stereo not drawn) [IX-7, 1-Oxaspiro[4.5]dec-3-en-2-one, 3-(cyclo-propylphenylmethyl)4-hydroxy-6--(2-phenylmethyl)-] |  |  |  | HIV-1 Protease % Inhibition [1]: 102.85%; HIV-1 Protease % Inhibition [2]: 99.7%; HIV-1 Protease % Inhibition [3]: 95.76% |
| O=C1OC2(CCCCCC2)C(O)=C1C(c1ccccc1)C1CC1 (stereo not drawn) [IX-8, 1-Oxaspiro[4.6]undec-3-en-2-one, 3-(cyclo-propylphenylmethyl)-4-hydroxy-] | 104 | 108 | 104 |  |
| CCC1(Cc2ccccc2)OC(=O)C(C(c2ccccc2)C(C)C)=C1O (stereo not drawn) [IX-9, 2(5H)-Furanone, 5-ethyl-4-hydroxy-3-(2-methy1-1-phenylpropyl)-5-(phenyl-methyl)-] | 103 | 109 | 108 |  |
| CCC(C1=C(O)C(CC)(Cc2ccccc2)OC1=O)c1ccccc1 (stereo not drawn) [IX-10, 2(5H)-Furanone, 5-ethyl-4-hydroxy-5-(phenyl-methyl)-3-(1-phenylpropyl)-] | 97.3 | 105 | 101 |  |
| CCCC1(CCC)OC(=O)C(C(c2cccc(N)c2)C2CC2)=C1O (stereo not drawn) [IX-11, 2(5H)-Furanone, 3-((3-aminophenyl)cyclopropylmethyl)-4-hydroxy-5,5-dipropyl-] | 108 | 108 | 114 |  |
| CCCC1(CCC)OC(=O)C(C(c2cccc(N)c2)C2CC2)=C1O (stereo not drawn) [IX-12, 2(5H)-Furanone, 3-((3-aminophenyl)cyclopropylmethyl)-4-hydroxy-5,5-dipropyl-hydrochloride] |  |  |  | HIV-1 Protease % Inhibition [1]: 117.79%; HIV-1 Protease % Inhibition [2]: 119.69%; HIV-1 Protease % Inhibition [3]: 120.48% |
| CCCC1(CCC)OC(=O)C(C(CC)c2cccc(N)c2)=C1O (stereo not drawn) [IX-13, 2(5H)-Furanone, 3-(1-(3-aminophenyl)propyl)-4-hydroxy-4-hydroxy-5,5-dipropyl-] | 59.9 | 86.5 | 89.4 |  |
| CCCC1(CCC)OC(=O)C(C(c2cccc(NS(=O)(=O)c3ccccc3)c2)C2CC2)=C1O (stereo not drawn) [IX-15, Benzenesulfonamide, N-(3-(cyclopropyl(1,5-dihydro-4-hydroxy-2-oxo-5,5-dipropyl-3-furanyl)methyl)phenyl)-] |  |  |  | inhibition at 0.12 µM (HIV-1 dose 0.12 μM): 94%; inhibition at 0.37 µM (HIV-1 dose 0.37 μM): 102%; inhibition at 1.1 µM (HIV-1 dose 1.1 μM): 104% |
| CCCC1(CCC)OC(=O)C(C(c2cccc(NS(=O)(=O)c3ccc(F)cc3)c2)C2CC2)=C1O (stereo not drawn) [IX-16] | 108 | 109 | 106 |  |
| CCCC1(CCC)OC(=O)C(C(c2cccc(NS(=O)(=O)c3cccc4cccnc34)c2)C2CC2)=C1O (stereo not drawn) [IX-18] | 102 | 125 | 106 |  |
| CCCC1(CCC)OC(=O)C(C(c2cccc(NS(=O)(=O)c3cccc4ccccc34)c2)C2CC2)=C1O (stereo not drawn) [IX-19] | 103 | 126 | 105 |  |
| CCCC1(CCC)OC(=O)C(C(CC)c2cccc(NS(=O)(=O)c3ccccc3)c2)=C1O (stereo not drawn) [IX-20, Benzenesulfonamide, N-(3-(1-(2,5-dihydro-4-hydroxy-2-oxo--5,5-dipropyl-3-furanyl)propyl)phenyl)-] | 104 | 101 | 91.8 |  |
| CCCC1(CCC)OC(=O)C(C(CC(C)C)c2cccc(NS(=O)(=O)c3ccc(C#N)cc3)c2)=C1O (stereo not drawn) [IX-21, Benzenesulfonamide, 4-Cyano-N-(3-(1-(4-hydroxy-2-oxo-5,5-dipropyl-2,5-dihydro-furan-3-yl)-3-methyl-butyl)-phenyl)-] | 95.7 | 101 | 96.1 |  |
| CCCC1(CCC)OC(=O)C(C(CC(C)C)c2cccc(NS(=O)(=O)c3cn(C)cn3)c2)=C1O (stereo not drawn) [IX-22] | 94.3 | 96.3 | 94.5 |  |
| CCCC1(CCC)OC(=O)C(C(c2cccc(NS(=O)(=O)c3ccc(C#N)cc3)c2)C(C)C)=C1O (stereo not drawn) [IX-23, Benzenesulfonamide, 4-Cyano-N-(3-(1-(4-hydroxy-2-oxo-5,5-dipropyl-2,5-dihydro-furan-3-yl)-2-methyl-propyl)-phenyl)-] | 109 | 101 | 112 |  |
| CCCC1(CCC)OC(=O)C(C(c2cccc(NS(=O)(=O)c3ccc(C#N)cc3)c2)C(C)(C)C)=C1O (stereo not drawn) [IX-25, Benzenesulfonamide, 4-Cyano-N-(3-(1-(4-hydroxy-2-oxo-5,5-dipropyl-2,5-dihydro-furan-3-yl)-2,2-dimethyl-propyl)-phenyl)-] | 120 | 120 | 117 |  |
| CCCC1(CCC)OC(=O)C(C(c2cccc(NS(=O)(=O)c3cn(C)cn3)c2)C(C)(C)C)=C1O (stereo not drawn) [IX-26, 1H-Imidazole-4-sulfonamide, N-(3-(1-(4-hydroxy-2-oxo-5,5-dipropyl-2,5-dihydro-furan-3-yl)-2,2-dimethyl-propyl)-phenyl)-1-methyl-] | 110 | 116 | 105 |  |
| CCCC1(Cc2ccccc2)OC(=O)C(C(c2cccc(NS(=O)(=O)c3ccccc3)c2)C(C)C)=C1O (stereo not drawn) [IX-27, Benzenesulfonamide, N-(3-(1-(2,5-dihydro-4-hydroxy-2-oxo-5--(phenylmethyl)-5-propyl-3-furanyl)-2-methylpropyl)phenyl)-] | 105 | 117 | 106 |  |
| CCCC1(Cc2ccccc2)OC(=O)C(C(c2cccc(NS(=O)(=O)c3ccc(C#N)cc3)c2)C(C)C)=C1O (stereo not drawn) [IX-28] | 123 | 118 | 125 |  |
| CCCC1(Cc2ccccc2)OC(=O)C(C(c2cccc(NS(=O)(=O)c3ccc(F)cc3)c2)C(C)C)=C1O (stereo not drawn) [IX-29, Benzenesulfonamide, N-(3-(1-(2,5-dihydro-4-hydroxy-2-oxo-5-(phenylmethyl)-5-propyl-3-furanyl)-2-methylpropyl)phenyl)-4-fluoro-] | 94.9 | 102 | 93.3 |  |
